Holding throughout (conditions): saturating DL-infraluciferin (DL-iLH2) as co-substrate
In assay [1] the target is WT Fluc (Photinus pyralis firefly luciferase, Ppy Fluc) (Photinus pyralis, UniProt P08659, E354R/D357Y).
Assay [2] deals with WT Fluc (Photinus pyralis firefly luciferase, Ppy Fluc) (Photinus pyralis, UniProt P08659).
The test system of a further assay is T1, Eluc.
T1 construct: 10X N-terminal His tag, pET16b, E. coli BL21(DE3) pLysS, Ni-NTA purified; amplified from plasmid pLR6-Eluc
The experiment in a line: bioluminescence, ATP […] to […], Hanes-Woolf plot. The assay is classed as biochemical, Pyrearinus termitilluminans.

Sequence of WT Fluc (Photinus pyralis firefly luciferase, Ppy Fluc) (Photinus pyralis, UniProt P08659) (P08659 whole entry): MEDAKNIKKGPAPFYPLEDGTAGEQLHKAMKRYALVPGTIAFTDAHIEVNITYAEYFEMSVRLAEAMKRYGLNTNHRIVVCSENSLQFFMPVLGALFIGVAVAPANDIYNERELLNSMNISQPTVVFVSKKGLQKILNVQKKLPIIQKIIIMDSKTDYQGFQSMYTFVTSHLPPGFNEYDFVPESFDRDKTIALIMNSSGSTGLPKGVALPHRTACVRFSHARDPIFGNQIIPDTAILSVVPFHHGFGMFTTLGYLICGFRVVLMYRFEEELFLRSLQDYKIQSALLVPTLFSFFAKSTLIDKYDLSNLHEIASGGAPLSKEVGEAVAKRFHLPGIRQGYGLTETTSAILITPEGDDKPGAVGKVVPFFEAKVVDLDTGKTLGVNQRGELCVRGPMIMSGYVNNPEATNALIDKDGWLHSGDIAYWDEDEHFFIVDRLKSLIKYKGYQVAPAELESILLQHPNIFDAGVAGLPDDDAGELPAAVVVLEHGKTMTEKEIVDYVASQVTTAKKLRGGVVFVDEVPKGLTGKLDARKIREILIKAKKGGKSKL
Sequence of WT Fluc (Photinus pyralis firefly luciferase, Ppy Fluc) (Photinus pyralis, UniProt P08659, E354R/D357Y) (P08659 whole entry E354R/D357Y): as the sequence (P08659 whole entry) above, with E354R, D357Y counted along it

`Nc1ncnc2c1ncn2[C@@H]1O[C@H](COP(=O)(O)OP(=O)(O)OP(=O)(O)O)[C@@H](O)[C@H]1O` [ATP]: the Km result in assay [1] is “Kms for ATP in the presence of DL-iLH2 (ATP(iLH2))”; in assay [2], 160 µM; in the assay with Eluc it was 200 µM.

The values above are taken from paper PMC9459109, “A higher spectral range of beetle bioluminescence with infraluciferin” (Frontiers in Bioengineering and Biotechnology, 2022).
